Test results reported in US12276654B2, “Chemical probe-dependent evaluation of protein activity and uses thereof” (The University of Chicago, priority 2017, dated 2025).
Entries after “also recorded” stand apart in the source; their conditions may differ.

Experiments:
Assay type in all cases: cell-based
NCEH1 [1] = target: T1, NCEH1 (Homo sapiens, UniProt Q6PIU2); experiment: α-Biotin Western blot gel-based profiling of NCEH1 activity (FP-Bio labeling) in SKOV3 cells; parameters: endogenous NCEH1 activity in SKOV3 cells; endogenous in cells; host or cells: SKOV3; settings: 1 μM, 4 hr pre-treatment, equivalent NCEH1 protein levels
T1 sequence (Q6PIU2 1-408): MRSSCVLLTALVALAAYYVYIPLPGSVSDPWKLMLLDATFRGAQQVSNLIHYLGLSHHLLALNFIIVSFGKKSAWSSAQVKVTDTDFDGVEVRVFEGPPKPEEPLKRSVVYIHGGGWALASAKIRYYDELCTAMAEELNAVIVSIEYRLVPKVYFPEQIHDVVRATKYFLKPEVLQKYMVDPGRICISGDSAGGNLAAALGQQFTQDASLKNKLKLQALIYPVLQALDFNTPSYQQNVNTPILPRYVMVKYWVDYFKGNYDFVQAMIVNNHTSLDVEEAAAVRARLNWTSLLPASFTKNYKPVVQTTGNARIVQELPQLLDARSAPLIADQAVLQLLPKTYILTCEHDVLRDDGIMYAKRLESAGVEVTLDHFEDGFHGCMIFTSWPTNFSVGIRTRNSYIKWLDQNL
Description: Cells were grown in 6-well plates or 6-cm dishes until reaching 80-90% confluence. FP-biotin (FP-Bio, 10 mM stock in DMSO) was diluted to 2 μM in DMEM, and added to cells at 37° C. for 40 minutes. Cells were then washed in PBS, scraped and lysed by sonication using PBS buffer supplemented with protease inhibitor cocktail (Sigma, #92714-1BTL). Protein concentration was determined by BCA assay (Pierce, #23225), lysate was diluted in Laemmli buffer (4×: 200 mM Tris pH 6.8, 400 mM DTT, 8% SDS, 0.4% bromophenol, 40% glycerol), heated to 95° C. for 5 minutes, and resolved on a 4-12% PAGE gel (ThermoFisher, NP0322BOX). PAGE gels were processed for Western blot as indicated above with IR800-conjugated streptavidin (LI-COR, #926-32230) overnight at 4° C. Images were captured by Odyssey CLx imaging system (LI-COR). Quantification of band intensities was performed using ImageJ software (NIH).

NCEH1 [2] = target: T1, NCEH1; experiment: sADPL target engagement in patient-derived hPBMCs; parameters: The human peripheral blood mononuclear cells (hPBMCs) were extracted from patient-derived blood samples; endogenous in cells; host or cells: primary human PBMCs from patient blood; settings: hPBMCs from patient-derived blood; inhibitor prior to family-wide probe
Description: FIG. 24. Target Engagement in Patient-derived PBMCs. The human peripheral blood mononuclear cells (hPBMCs) were extracted from patient-derived blood samples. Likewise, hPBMCs were treated with DMSO as the control, with inhibitor prior to family wide probe to pre-block the active site, or with family-wide probe directly. Then sADPL workflow was applied to read out the CT difference.

PAFAH2 = target: T2, PAFAH2 (Homo sapiens, UniProt Q99487); experiment: ADPL quantification of PAFAH2 activity in stable PAFAH2 expressing PC3 cells; settings: same dose-range (0-1 μM)
T2 construct: Full-length, human ESD (NM_001984) and PAFAH2 (NM_000437) in pCMV6 entry vectors with C-terminal Myc-DDK tag
Description: Cells were seeded in the 12-well chamber slide, typically at 10,000-30,000 cells per well (Ibidi, #81201). To get an even distribution of the cells, the chamber slide was pre-wetted with cell culture medium, drained off, and the chamber was left at room temperature for 5-10 min after seeding. Cells at 80-90% confluency were pulse treated with either FP-Bio (2 μM) in DMEM and incubated at 37° C. for 40 min or Capthepsin probe (5 μM) in complete medium and incubated at 37° C. for 3 hr. Cells were washed with PBS, fixed with 4% paraformaldehyde in PBS at room temperature for 15 minutes, washed twice with PBS for 5 minutes each at room temperature with orbital shaking and then permeabilized in 0.5% Triton X-100 in PBS at room temperature for 15 minutes. Finally, cells were washed twice with 0.05% Tween-20 in PBS for 5 minutes each at room temperature with orbital shaking.
Prior to antibody incubation, the chamber was removed and the well boundaries delineated with the hydrophobic barrier pen (Vector laboratories, #H-4000). One-drop Duolink blocking buffer (Sigma, #DUO92004) was added and the slide was incubated at 37° C. for 30 minutes in a humidified chamber. […]

In the case of `CC(C)c1ccccc1OC(=O)NCCc1ccc2ccccc2c1` [JW480], the “NCEH1 activity by gel-based profiling (FP-Bio labeling)” value (NCEH1 [1]) is reported as “significant and selective inhibition of NCEH1 activity; also recorded: specifically inhibits labeling of NCEH1”, the “activity in inhibitor competition group by sADPL in hPBMCs” value (NCEH1 [2]) is reported as “bring the activities down to the levels of DMSO controls” and the “effect on PAFAH2 activity (ADPL signal)” value (PAFAH2) is reported as “no inhibition of target signal was observed; also recorded: no effect”.
